# System: HCV type 1b replicon (Huh-7 luc/neo, Huh-Luc)
# Test: Replicon assay, Huh-Luc cells with HCV type 1b replicon (stable), luciferase readout
# Assay type: cell-based
# Conditions: Hepatitis C virus, Huh-7, 72 h, Huh-Luc HCV 1b replicon, three days incubation, luciferase activity; read-out: EC50
# From the text: The compounds of formula I may be examined for activity in the inhibition of HCV RNA replication in a cellular assay aimed at identifying compounds that inhibit a HCV functional cellular replicating cell line, also known as HCV replicons. A suitable cellular assay is based on a bicistronic expression construct, as described by Lohmann et al. (1999), Science vol. 285 pp. 110-113 with modifications described by Krieger et al. (2001), Journal of Virology 75: 4614-4624, in a multi-target screening strategy.
# The assay utilizes the stably transfected cell line Huh-7 luc/neo (hereafter referred to as Huh-Luc). This cell line harbors an RNA encoding a bicistronic expression construct comprising the wild type NS3-NS5B regions of HCV type 1b translated from an Internal Ribosome Entry Site (IRES) from encephalomyocarditis virus (EMCV), preceded by a reporter portion (FfL-luciferase), and a selectable marker portion (neo^R, neomycine phosphotransferase). The construct is bordered by 5′ and 3′ NTRs (non-translated regions) from HCV type 1b. Continued culture of the replicon cells in the presence of G418 (neo^R) is dependent on the replication of the HCV RNA. The stably transfected replicon cells that express HCV RNA, which replicates autonomously and to high levels, encoding inter alia luciferase, are used for screening the antiviral compounds.
# The replicon cells are plated in 384 well plates in the presence of the test and control compounds which are added in various concentrations. Following an incubation of three days, HCV replication is measured by assaying luciferase activity (using standard luciferase assay substrates and reagents and a Perkin Elmer ViewLux™ ultraHTS microplate imager). Replicon cells in the control cultures have high luciferase expression in the absence of any inhibitor. The inhibitory activity of a compound on luciferase activity is monitored on the Huh-Luc cells, enabling a dose-response curve for each test compound. EC50 values are then calculated, which value represents the amount of the compound required to decrease the level of detected luciferase activity by 50%, or more specifically, the ability of the genetically linked HCV replicon RNA to replicate.
row,SMILES,EC50
1,"O=c1ccn([C@@H]2O[C@H](CO)[C@@H](O)[C@]2(F)Cl)c(=O)[nH]1 [Example 1, 1-((2R,3S,4R,5R)-3-chloro-3-fluoro-4-hydroxy-5-(hydroxymethyl)tetrahydrofuran-2-yl)pyrimidine-2,4(1H,3H)-dione]",> 50000 nM
2,"C[C@H](NP(=O)(OC[C@H]1O[C@@H](n2ccc(=O)[nH]c2=O)[C@@](F)(Cl)[C@@H]1O)Oc1ccccc1)C(=O)OC1CCCCC1 (stereo partly drawn) [Example 4, (2S)-cyclohexyl 2-(((((2R,3R,4S,5R)-4-chloro-5-(2,4-dioxo-3,4-dihydropyrimidin-1(2H)-yl)-4-fluoro-3-hydroxytetrahydrofuran-2-yl)methoxy)(phenoxy)phosphoryl)amino)propanoate]",90 nM
3,CC[C@@H](C)OC(=O)[C@H](C)NP(=O)(OC[C@H]1O[C@@H](n2ccc(=O)[nH]c2=O)[C@@](F)(Cl)[C@@H]1O)Oc1ccccc1 (stereo partly drawn) [Example 5],43 nM
4,CCOC(=O)[C@H](C)NP(=O)(OC[C@H]1O[C@@H](n2ccc(=O)[nH]c2=O)[C@@](F)(Cl)[C@@H]1O)Oc1ccccc1 (stereo partly drawn) [Example 6],79 nM
5,CCC(CC)COC(=O)[C@H](C)NP(=O)(OC[C@H]1O[C@@H](n2ccc(=O)[nH]c2=O)[C@@](F)(Cl)[C@@H]1O)Oc1ccccc1 (stereo partly drawn) [Example 7],55 nM
6,CCCCOC(=O)[C@H](C)NP(=O)(OC[C@H]1O[C@@H](n2ccc(=O)[nH]c2=O)[C@@](F)(Cl)[C@@H]1O)Oc1ccccc1 (stereo partly drawn) [Example 8],44 nM
7,CC(C)OC(=O)[C@H](C)NP(=O)(OC[C@H]1O[C@@H](n2ccc(=O)[nH]c2=O)[C@@](F)(Cl)[C@@H]1O)Oc1ccc2c(c1)OCO2 (stereo partly drawn) [Example 9],190 nM
8,COc1ccccc1OP(=O)(N[C@@H](C)C(=O)OC(C)C)OC[C@H]1O[C@@H](n2ccc(=O)[nH]c2=O)[C@@](F)(Cl)[C@@H]1O (stereo partly drawn) [Example 10],45 nM
9,COc1ccc(OP(=O)(N[C@@H](C)C(=O)OC(C)C)OC[C@H]2O[C@@H](n3ccc(=O)[nH]c3=O)[C@@](F)(Cl)[C@@H]2O)cc1 (stereo partly drawn) [Example 11],150 nM
10,CC(C)OC(=O)[C@H](C)NP(=O)(OC[C@H]1O[C@@H](n2ccc(=O)[nH]c2=O)[C@@](F)(Cl)[C@@H]1O)Oc1cccc(C2CC2)c1 (stereo partly drawn) [Example 12],180 nM
11,CC[C@H](C)OC(=O)[C@H](C)NP(=O)(OC[C@H]1O[C@@H](n2ccc(=O)[nH]c2=O)[C@@](F)(Cl)[C@@H]1O)Oc1ccccc1 (stereo partly drawn) [Example 13],61 nM
12,CCCOC(=O)[C@H](C)NP(=O)(OC[C@H]1O[C@@H](n2ccc(=O)[nH]c2=O)[C@@](F)(Cl)[C@@H]1O)Oc1ccccc1 (stereo partly drawn) [Example 14],76 nM
13,CC(C)OC(=O)[C@H](C)NP(=O)(OC[C@H]1O[C@@H](n2ccc(=O)[nH]c2=O)[C@@](F)(Cl)[C@@H]1O)Oc1cccc(C2CCC2)c1 (stereo partly drawn) [Example 15],90 nM
14,CC(C)OC(=O)[C@H](C)NP(=O)(OC[C@H]1O[C@@H](n2ccc(=O)[nH]c2=O)[C@@](F)(Cl)[C@@H]1O)Oc1cccc(C2(C)CC2)c1 (stereo partly drawn) [Example 16],91 nM
15,CC(C)OC(=O)[C@H](C)NP(=O)(OC[C@H]1O[C@@H](n2ccc(=O)[nH]c2=O)[C@@](F)(Cl)[C@@H]1O)Oc1ccc(C2(C)CC2)cc1 (stereo partly drawn) [Example 17],110 nM
16,COC[C@@H](C)OC(=O)[C@H](C)NP(=O)(OC[C@H]1O[C@@H](n2ccc(=O)[nH]c2=O)[C@@](F)(Cl)[C@@H]1O)Oc1ccccc1 (stereo partly drawn) [Example 20],65 nM
17,COCC(COC)OC(=O)[C@H](C)NP(=O)(OC[C@H]1O[C@@H](n2ccc(=O)[nH]c2=O)[C@@](F)(Cl)[C@@H]1O)Oc1ccccc1 (stereo partly drawn) [Example 21],210 nM
18,CCC(CC)OC(=O)[C@H](C)NP(=O)(OC[C@H]1O[C@@H](n2ccc(=O)[nH]c2=O)[C@@](F)(Cl)[C@@H]1O)Oc1ccccc1 (stereo partly drawn) [Example 22],58 nM
19,CC(C)OC(=O)[C@H](C)NP(=O)(OC[C@H]1O[C@@H](n2ccc(=O)[nH]c2=O)[C@@](F)(Cl)[C@@H]1O)Oc1cccc2ncccc12 (stereo partly drawn) [Example 24],1400 nM
20,COC[C@H](C)OC(=O)[C@H](C)NP(=O)(OC[C@H]1O[C@@H](n2ccc(=O)[nH]c2=O)[C@@](F)(Cl)[C@@H]1O)Oc1ccccc1 (stereo partly drawn) [Example 25],100 nM
21,"CC(C)OC(=O)[C@H](C)NP(=O)(OC[C@H]1O[C@@H](n2ccc(N)nc2=O)[C@@](F)(Cl)[C@@H]1O)Oc1ccccc1 (stereo partly drawn) [Example 26, (2S)-Isopropyl 2-(((((2R,3R,4S,5R)-5-(4-amino-2-oxopyrimidin-1(2H)-yl)-4-chloro-4-fluoro-3-hydroxytetrahydrofuran-2-yl)methoxy)(phenoxy)phosphoryl)amino)propanoate]",86 nM

# Same assay, conditions: Huh-Luc HCV 1b replicon, three days incubation, luciferase activity; read-out: EC50
row,SMILES,EC50
1,CC(C)OC(=O)[C@H](C)NP(=O)(OC[C@H]1O[C@@H](n2ccc(=O)[nH]c2=O)[C@@](F)(Cl)[C@@H]1O)Oc1ccccc1 (stereo partly drawn) [Example 23],5100 nM

# Biological target: HCV NS5B-21 (Hepatitis C virus genotype 1b (isolate Con1) (HCV), UniProt Q9WMX2)
# Test: Enzyme assay, HCV NS5B-21 SPA (scintillation proximity assay)
# Assay type: biochemical
# Conditions: triphosphates
# Experimental: It is this triphosphate which is believed to be the antivirally active species. The enzyme assay described here may be used to confirm that compounds of the invention are antivirally active as the 5′-triphosphate metabolite.
# The enzyme assay measures the inhibitory effect of triphosphate compounds in an HCV NS5B-21 (21-amino acid C-terminally truncated version) SPA assay (scintillation proximity assay). The assay is performed by evaluating the amount of radiolabelled ATP incorporated by HCV NS5B-21 into newly synthesized RNA using an heterogeneous biotinylated RNA template.
# To determine IC50 values the compounds are tested at various concentrations in a final volume of 100 μl of reaction mixture. The reaction is stopped by addition of 0.5M EDTA solution.
# The samples are transferred into flashplates precoated with streptavidin. The incorporated radioactivity is quantified using a scintillation counter (Wallac Microbeta Trilux).
# The assay should include enzyme controls (about four, containing 1 μl DMSO instead of inhibitor) and background control containing all ingredients except template.
# Compounds are serially diluted in DMSO on a separate dilution plate to 100× the final desired assay concentrations. […]
# Incubate the plate over night and read the flash plate in the Microbeta Trilux using the protocol Flash plates H3. […]
# IC50 is determined using Graphpad Prism. […]
row,SMILES,IC50
1,"O=c1ccn([C@@H]2O[C@H](COP(=O)(O)OP(=O)(O)OP(=O)(O)O)[C@@H](O)[C@]2(F)Cl)c(=O)[nH]1 [Example 3, Lithium ((2R,3R,4 S,5R)-4-chloro-5-(2,4-dioxo-3,4-dihydropyrimidin-1(2H)-yl)-4-fluoro-3-hydroxytetrahydrofuran-2-yl)methyl triphosphate]",720 nM
2,"Nc1ccn([C@@H]2O[C@H](COP(=O)(O)OP(=O)(O)OP(=O)(O)O)[C@@H](O)[C@]2(F)Cl)c(=O)n1 [Example 27, (((2R,3R,4 S, 5R)-5-(4-amino-2-oxopyrimidin-1(2H)-yl)-4-chloro-4-fluoro-3-hydroxytetrahydrofuran-2-yl)methyl)triphosphoric acid]",89 nM

# — patent US10106571B2, “HCV polymerase inhibitors” (priority 2013, dated 2018)
